Data published in patent US10442845B2, “Interferon analogs” (BiOrion Technologies B.V., priority 2009, dated 2019).
Bridge positions count the residues as written; N and C are the ends. Ends that are not written are not given here.

Columns and labels:
[1] = tested on: mouse NIH3T3 fibroblasts; assay: Anti-fibrotic effects in mouse NIH3T3 fibroblasts (α-SMA staining); assay type: cell-based; details: mimetic IFNγ 1 μg/ml, 48 hrs
Protocol: Briefly, 3T3 fibroblasts were seeded in 24 well plates at the density of 6×10^4 cells/well, After 24 hrs, cells were starved in 0.5% FBS containing medium for overnight. Thereafter, cells were incubated in starvation medium with different compounds (PDGF 50 ng/ml, TGFβ 10 ng/ml, mimetic IFNγ 1 μg/ml, 50 ng/ml PDGF+1 μg/ml mimetic IFNγ and 10 ng/ml TGFβ+1 μg/ml mimetic IFNγ). After 48 hrs of incubation, cells were washed, fixed with ethanol:acetone (1:1) and stained for α-SMA (marker of activated fibroblasts).

[2] = tested on: PDGFß-receptor; assay: Binding of FITC-labeled PPB or BiPPB to cultured or freshly isolated primary cells; set-up: species or system rat; details: for binding (fluorescence microscopy): FITC-coupled, 10 μg/ml, 2 h, room temperature, rat hepatic stellate cells and other cell types tested
Protocol: The binding of BiPPB was performed in primary freshly isolated rat hepatic stellate cells. Cells were seeded in the 8-well glass plates (Lab-Tek, Nunc, Naperville, Ill.) at 30,000 cells/well in the culture medium. After overnight incubation at 37° C./5% CO2, cells were washed with PBS and subsequently incubated with FITC-labeled PPB (monocyclic) or BiPPB (bicyclic: 10 μg/ml) at room temperature. To block the binding, anti-PDGF-βR IgG was added to the cells 1 h before FITC coupled PPB or BiPPB. After 2 h, cells were washed 3 to 4 times with cold PBS and fixed with 4% paraformaldehyde. The nuclei were counterstained with DAPI and mounted in citifluor (anti-fade reagent) and visualized under fluorescent microscope.
Similar binding experiments were performed in primary freshly isolated human myofibroblasts, mouse 3T3 fibroblasts and human hepatic stellate cells (LX2). For human Hepatic stellate cells, the sequence of BiPPB was as follows: […]

[3] = tested on: Human Hepatocytes (HepG2); assay: ICAM1 expression in human hepatocytes (HepG2); assay type: cell-based; details: 1 ug/ml, 24 hrs, 18srRNA housekeeping control
Protocol: Human Hepatocytes (HepG2) were plated in 12 well plates (1×10^5 cells/well). The cells were grown overnight in 5%/37° C./CO2 incubator. […] After 24 hrs of incubation, cells were lysed, RNA was isolated and reverse transcribed. The cDNA was used for the analysis of Inter-Cellular Adhesion Molecule 1 (ICAM1) expression, which is known to be induced in response to IFNγ. 18srRNA was used a housekeeping control.

[4] = tested on: acute CCL4-induced liver injury mouse model; assay: Blood count analysis (side effects) in acute CCl4-induced liver injury mouse model; assay type: in vivo; details: 50,000 U/mice at day 2 and 3; p<0.0025
Protocol: At day 1, the animals were given a single intra-peritoneal dose (1 ml/kg) of carbon tetrachloride (CCl4) in olive oil or olive oil (controls n=6). After 24 hrs of CCl4 injection, at day 2 and 3, animals were treated either with PBS (n=6), 50,000 U/mice of IFNγ (n=6), 50,000 U/mice of mimetic IFNγ (n=5), 50,000 U/mice of IFNγ-BiPPB (n=6), 50,000 U/mice of Mimetic IFNγ-BiPPB (n=6).

[5] = tested on: established advanced liver fibrosis mouse model; assay: Established advanced liver fibrosis mouse model (8 weeks CCl4), liver section staining; assay type: in vivo
Protocol: Male balb/c mice (20-22 g) were treated with olive oil or increasing doses of CCl4 (week 1: 0.5 ml/kg; week 2: 0.8 ml/kg and week 3-8: 1 ml/kg prepared in olive oil) twice weekly by intra-peritoneal injections for 8 weeks. In week 7 and 8, mice were treated intravenously with PBS, mimeticIFNγ-PEG or MimeticIFNγ-PEG-BiPPB (5 μg/mice, thrice per week). All mice were sacrificed at week 8; blood and liver samples were collected for subsequent measurements. The liver sections were stained for Collagen I and desmin, CD68, 33D1 and MHC class II.

[6] = tested on: liver fibrosis models induced with CCl4 in mice; assay: 4 days (acute) and 8 weeks (chronic) CCl4 liver fibrosis models in mice; assay type: in vivo, mouse
Protocol: In vivo, the targeted conjugate was examined in 4 days (acute) and 8 weeks (chronic) liver fibrosis models induced with CCl4 in mice. Several fibrotic parameters and infiltration of inflammatory cells were assessed in the livers using immunohistochemistry and gene expression analysis.

[7] = 5 μg/mice i.v. thrice per week, week 7 and 8, vs untreated CCl4-mice

AKFEVNNPQVQRQAFNELIRVVHQLLPESSLRKRKRSR (listed as Mus musculus) [Recombinant mimetic IFNγ]
anti-fibrotic effects (α-Smooth muscle actin staining) [1]: anti-fibrotic effects

C(1)S R N L I D C(1)G G G D G G C(2)S R N L I D C(2) (CSRNLIDCGGGDGGCSRNLIDC; disulfide 1-8, 15-22; also: FITC label) [BiPPB, Bicyclic peptide against the PDGF-beta-receptor; KGSGSGG linker variant for human hepatic stellate cells]
binding (fluorescence microscopy) [2]: specifically binds | binding (fluorescence microscopy) ([2]; listed as FITC-coupled BiPPB): significant binding | species specificity of binding ([2]; Myo-fibroblast-like cells of rat, mouse and human): species non-specific | binding after blocking with PDGF receptor antibody ([2]; anti-PDGF-βR IgG added 1 h before): almost completely blocked

FEVNNPQVQRQAFNELIRVVHQLLPESSLRKRKRSR [mouse truncated IFNγ, signaling moiety of murine IFNγ (mimIFNγ), without targeting domain]
ICAM1 expression [3]: neither mouse truncated IFNγ nor Lac-HSA induced ICAM1 expression | ICAM1 expression ([3]; listed as mouse (truncated) INFγ): ineffective

human IFNγ: human interferon gamma, positive control in human hepatocytes
ICAM1 expression [3]: upregulated ICAM1 expression

B1: INFγ: full length mouse Interferon gamma, SEQ ID NO: 54 (protein, listed as Mus musculus)
chain: MNATHCILALQLFLMAVSGCYCHGTVIESLESLNNYFNSSGIDVEEKSLFLDIWRNWQKDGDMKILQSQIISFYLRLFEVLKDNQAISNNISVIESHLITTFFSNSKAKKDAFMSIAKFEVNNPQVQRQAFNELIRVVHQLLPESSLRKRKRSRC
reduction in platelet count (PLT) [4]: reduction in platelet count | collagen I staining (liver sections) [5, 7]: only a small reduction | desmin staining (liver sections) [5, 7]: only a small reduction | MHCII expression in livers ([5]; chronic CCl4 model): increased MHCII expression | infiltration of inflammatory cells (CD68+ macrophages, neutrophils, 33D1+ dendritic cells) in livers ([5]; chronic CCl4 model): induced infiltration of inflammatory cells | fibrotic parameters ([6]; both acute and chronic liver fibrosis models): only a moderate reduction | MHCII expression ([6]; data not shown): increased MHCII expression | infiltration of inflammatory cells (CD68+ macrophages, neutrophils, 33D1+ dendritic cells) / inflammatory response ([6]; data not shown): induced infiltration of inflammatory cells
